The text below walks through data of ChEMBL document CHEMBL4130348, “Structure-activity relationship investigation for benzonaphthyridinone derivatives as novel potent Bruton's tyrosine kinase (BTK) irreversible inhibitors” (Eur J Med Chem, 2017).

Activity calls are given as the source filed them. The calls are words filed in the database; no cut-off is given here.

Experiment [1] addresses T1, Tyrosine-protein kinase BTK (Homo sapiens, UniProt Q06187). The experiment can be described thus: Inhibition of BTK autophosphorylation at Y223 in anti-IgM stimulated human Ramos cells after 4 hrs by chemiluminescence assay. The experiment is classed as cell-based.
Experiment [2] has as its system Pfeiffer. Briefly: Cell cycle arrest in human Pfeiffer cells assessed as accumulation at G0/G1 phase up to 10 uM after 48 hrs by propidium iodide staining-based flow cytometric method. The experiment is classed as functional. (In flow cytometry, cells or beads pass a laser one at a time.)
The target in experiment [3] is T1, Tyrosine-protein kinase BTK. Briefly: Inhibition of BTK in anti-IgM stimulated human MOLM13 cells assessed as decrease in PLCgamma2 phosphorylation at Y1217 at 100 to 1000 nM after 4 hrs by chemiluminescence assay.
Experiment [4] shares this target. The experiment can be described thus: Inhibition of BTK autophosphorylation at Y223 in anti-IgM stimulated human MOLM13 cells after 4 hrs by chemiluminescence assay.
A further experiment deals with Ramos. Briefly: Induction of apoptosis in human Ramos cells assessed as PARP cleavage up to 10 uM after 48 hrs by immunoblot method. It counts as functional, cell-based.
Experiment [5] relates to Pfeiffer. The experiment can be described thus: Induction of apoptosis in human Pfeiffer cells assessed as caspase-3 cleavage up to 10 uM after 48 hrs by immunoblot method. It counts as functional, cell-based. For orientation: Immunoblotting shows a protein as a band on a membrane.
The target of experiment [6] is T1, Tyrosine-protein kinase BTK. The experiment can be described thus: Inhibition of BTK autophosphorylation at Y223 in anti-IgM stimulated human Pfeiffer cells after 4 hrs by chemiluminescence assay. It counts as cell-based.
Experiment [7] shares this target. Briefly: Irreversible inhibition of recombinant full length His-tagged human BTK expressed in baculovirus expression system using poly (4:1 Glu, Tyr) as substrate assessed as ratio of Kinact to Ki preincubated for 2 to 60 mins followed by substrate addition measured after 1 hr by ADP-glo assay. (ADP-Glo turns the ADP formed in a reaction into a luminescent signal.)

Experiment [8] has the same target. Briefly: Irreversible binding affinity to recombinant full length His-tagged human BTK expressed in baculovirus expression system assessed as modification of Cys481 residue containing fragment at 100 uM after 1 hr by LC/MS-MS method.
Experiment [9] has the same target. Briefly: Inhibition of BTK transphosphorylation at Y551 in anti-IgM stimulated human Pfeiffer cells at 100 to 1000 nM after 4 hrs by chemiluminescence assay. The experiment is classed as cell-based.

T1 sequence (Q06187 whole entry): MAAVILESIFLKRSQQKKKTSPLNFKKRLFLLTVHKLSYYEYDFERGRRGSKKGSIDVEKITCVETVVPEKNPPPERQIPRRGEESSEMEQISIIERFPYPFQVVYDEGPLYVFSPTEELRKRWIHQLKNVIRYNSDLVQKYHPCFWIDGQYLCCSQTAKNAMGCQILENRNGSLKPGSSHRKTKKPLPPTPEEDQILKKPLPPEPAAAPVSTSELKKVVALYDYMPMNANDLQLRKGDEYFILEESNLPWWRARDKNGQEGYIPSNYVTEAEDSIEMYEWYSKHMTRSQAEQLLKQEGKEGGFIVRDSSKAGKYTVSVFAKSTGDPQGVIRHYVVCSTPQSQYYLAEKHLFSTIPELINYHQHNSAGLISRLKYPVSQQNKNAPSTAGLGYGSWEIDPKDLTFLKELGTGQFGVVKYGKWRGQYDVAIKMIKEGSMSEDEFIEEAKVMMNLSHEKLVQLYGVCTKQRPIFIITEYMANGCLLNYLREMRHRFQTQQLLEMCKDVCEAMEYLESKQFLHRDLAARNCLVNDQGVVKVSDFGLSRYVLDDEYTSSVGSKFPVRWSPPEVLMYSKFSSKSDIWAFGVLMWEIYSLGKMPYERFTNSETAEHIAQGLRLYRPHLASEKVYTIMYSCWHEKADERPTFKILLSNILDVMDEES

As usually defined, the EC50 is the concentration needed to bring the measured effect to its halfway point. Turning to `C=CC(=O)Nc1cc(-n2c(=O)ccc3cnc4ccc(-n5cccn5)cc4c32)ccc1C`, the EC50 was less than 100 nM in experiment [1], less than 100 nM in [4] and less than 3000 nM in experiment [6]. The outcome (with Pfeiffer [2]; in the experiment on Ramos; in the experiment with Pfeiffer [5]; in [8]) was Active. The inhibition entry in experiment [3] and in [9] was “inactive” throughout. In experiment [7], the Ratio was 0.01 µM⁻¹ s⁻¹.
